The values that follow come from publication PMC2248166, “Quantitative peptide binding motifs for 19 human and mouse MHC class I molecules derived using positional scanning combinatorial peptide libraries” (Immunome Research, 2008).

Some targets named below: HLA A*6802 (Homo sapiens, UniProt P04439, A269V/D140Y/D185E/E176V/E277Q/E87N/F33Y/G231S/I121R/I166T/I218V/L180W/L300P/L318F/N151K/P208A/P217A/Q86R/R138H/R169H/S129P/T345S/V36M); HLA B*3501 (Homo sapiens, UniProt P01889, A329T/A93T/A95T/C349S/D201E/D98Y/E176V/E187L/E204Q/E69T/I218V/K202T/L119I/Q94N/R155S/R180L/S121R/S35A/S48A/T118I/V127L/V306I/V36M/Y140S/Y91F); HLA B*5101 (Homo sapiens, UniProt P01889, A329T/A93T/A95T/C349S/D138N/D201E/D98Y/E187L/E204Q/E69T/G107R/I218V/K202T/L105A/L119W/N104I/Q94N/R106L/R155S/R180L/S101N/S121T/S35A/S48A/V306I/V36M/Y195H/Y91F); HLA B*5301 (Homo sapiens, UniProt P01889, A329T/A93T/A95T/C349S/D201E/D98Y/E176V/E187L/E204Q/E69T/G107R/I218V/K202T/L105A/L119I/N104I/Q94N/R106L/R155S/R180L/S101N/S121R/S35A/S48A/T118I/V127L/V306I/V36M/Y140S/Y91F); HLA B*5401 (Homo sapiens, UniProt P01889, A329T/C349S/D138N/D201E/E176V/E187T/E204Q/E69G/I76V/K202T/L119W/R155S/R180L/S121T/S35A/S48A/V127L/V306I/V36M/Y140L); HLA B*5801 (Homo sapiens, UniProt P01889, A329T/C349S/D201E/D98Y/E176V/E187L/E204Q/E69T/G107R/I218V/I90N/K202T/L105A/L119I/N104I/N87E/Q89R/Q94S/R106L/R155S/R180L/R86G/S101N/S121R/S35A/S48A/T118I/V127L/V306I/V36M/Y140S/Y91M); HLA B*5802 (Homo sapiens, UniProt P01889, A329T/C349S/D201E/D98Y/E176V/E187L/E204Q/E69T/G107R/I218V/I90N/K202T/L105A/N104I/N87E/Q89R/Q94S/R106L/R155S/R180L/R86G/S101N/S121W/S35A/S48A/V127L/V306I/V36M/Y140S/Y91M); H-2 D^b (Mus musculus, UniProt P01899); H-2 D^d (Mus musculus, UniProt P01900); H-2 K^d (Mus musculus, UniProt P01902); H-2 K^k (Mus musculus, UniProt P04223).

What all share (format): binding
The target of the next assay is HLA A*3001 (Homo sapiens, UniProt P04439, D140H/D185E/E176W/F33S/G80R/H175R/K168Q/R138E/R41S). Briefly: biochemical.
The next assay has as its target HLA A*3201 (Homo sapiens, UniProt P04439, A270S/D101S/D185E/E176V/E277Q/F133L/G103R/G107R/G231S/H175R/I121M/I218V/I322F/K168Q/L105A/L300P/L318F/M331R/P208A/P217A/Q94H/R106L/R138Q/S129P/T104I/T323A/T345S/V100E/V321M/V358M). Briefly: biochemical.
Another assay concerns the target HLA B*0801 (Homo sapiens, UniProt P01889, A93T/A95T/D138N/E176V/E187T/K202T/Q94N/R180D/S35A/V36M/Y33D/Y91F). Description: biochemical.
The target of another assay is HLA B*1501 (Homo sapiens, UniProt P01889, A329T/A93T/A95T/C349S/D201E/D98Y/E187L/E204Q/E69M/E70A/K202T/N87E/Q94N/R155S/R180W/S121R/S35A/S48A/V306I/V36M/Y140S/Y91S). Description: biochemical.
For a further assay, the target named is HLA B*1503 (Homo sapiens, UniProt P01889, A329T/A93T/A95T/C349S/D201E/D98Y/E187L/E204Q/K202T/N87E/Q94N/R155S/R180L/S121R/S35A/V306I/V36M/Y140S/Y91S). Briefly: biochemical.

H-2 D^d, sequence (P01900 whole entry, looked up): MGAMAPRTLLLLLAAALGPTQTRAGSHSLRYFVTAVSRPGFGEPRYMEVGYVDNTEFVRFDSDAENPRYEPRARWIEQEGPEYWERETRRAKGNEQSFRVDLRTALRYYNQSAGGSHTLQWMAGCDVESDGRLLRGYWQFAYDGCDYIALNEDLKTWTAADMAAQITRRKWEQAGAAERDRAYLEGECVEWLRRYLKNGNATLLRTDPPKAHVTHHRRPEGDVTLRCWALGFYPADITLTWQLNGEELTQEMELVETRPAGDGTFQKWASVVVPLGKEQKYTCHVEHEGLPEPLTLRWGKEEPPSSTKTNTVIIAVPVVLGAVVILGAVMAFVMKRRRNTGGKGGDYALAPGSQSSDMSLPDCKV
H-2 K^d, sequence (P01887 21-119): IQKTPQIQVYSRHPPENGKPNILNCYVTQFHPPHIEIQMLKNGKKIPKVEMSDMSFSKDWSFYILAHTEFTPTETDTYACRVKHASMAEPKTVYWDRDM
H-2 K^d, sequence (P01902 22-368): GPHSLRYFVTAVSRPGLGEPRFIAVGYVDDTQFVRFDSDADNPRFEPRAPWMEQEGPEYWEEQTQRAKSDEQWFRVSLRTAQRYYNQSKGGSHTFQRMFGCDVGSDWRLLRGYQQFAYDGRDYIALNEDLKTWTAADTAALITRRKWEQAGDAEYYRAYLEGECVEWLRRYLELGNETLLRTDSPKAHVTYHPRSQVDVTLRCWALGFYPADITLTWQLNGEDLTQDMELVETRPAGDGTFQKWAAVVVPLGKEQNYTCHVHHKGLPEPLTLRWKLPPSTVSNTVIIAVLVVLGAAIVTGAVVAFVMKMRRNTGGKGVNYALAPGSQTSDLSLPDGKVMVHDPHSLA
H-2 D^b, sequence (P01887 21-119): as the sequence (P01887 21-119) above
H-2 D^b, sequence (P01899 25-362): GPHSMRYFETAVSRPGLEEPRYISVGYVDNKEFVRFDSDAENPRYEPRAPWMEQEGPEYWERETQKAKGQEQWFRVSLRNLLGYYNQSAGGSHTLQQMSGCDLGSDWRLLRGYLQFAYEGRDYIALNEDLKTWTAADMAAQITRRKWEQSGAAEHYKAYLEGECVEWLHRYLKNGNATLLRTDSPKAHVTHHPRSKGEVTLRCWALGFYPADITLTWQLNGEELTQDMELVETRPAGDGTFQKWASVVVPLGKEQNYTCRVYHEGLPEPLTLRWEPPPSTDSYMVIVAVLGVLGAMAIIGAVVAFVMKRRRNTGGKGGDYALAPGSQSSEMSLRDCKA
H-2 K^k, sequence (P01887 21-119): as the sequence (P01887 21-119) above
H-2 K^k, sequence (P04223 22-369): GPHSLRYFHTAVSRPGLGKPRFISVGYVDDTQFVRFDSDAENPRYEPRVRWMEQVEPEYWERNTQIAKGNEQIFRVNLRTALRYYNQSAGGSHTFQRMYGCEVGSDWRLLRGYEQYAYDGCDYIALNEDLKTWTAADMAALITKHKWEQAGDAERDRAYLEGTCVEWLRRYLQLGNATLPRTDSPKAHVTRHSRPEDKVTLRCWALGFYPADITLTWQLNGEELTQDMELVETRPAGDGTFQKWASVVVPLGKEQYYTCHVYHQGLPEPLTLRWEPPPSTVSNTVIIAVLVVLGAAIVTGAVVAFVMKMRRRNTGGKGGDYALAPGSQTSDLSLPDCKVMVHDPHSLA

Regarding XXXXXXWXX [3064.0139], the “Normalized average relative binding affinity(ARB)” value is 0.16 on HLA A*3001; 0.48 at HLA A*3201; 1.0 on HLA A*6802; 0.53 on HLA B*0801; 0.31 at HLA B*1501; 0.15 on HLA B*1503. In addition, the “Normalized average relative binding affinity(ARB)” value on HLA B*3501 was determined as 1.0; on HLA B*5101, 0.91; on HLA B*5301, 0.31; at HLA B*5401, 0.22; at HLA B*5801, 0.79; on HLA B*5802, 0.18. In addition, the “Normalized average relative binding affinity(ARB)” value on H-2 D^b is on record as 0.31; at H-2 D^d it was 0.044; at H-2 K^d, 0.056; at H-2 K^k, 0.064.
Take XXXXXXEXX [3064.0124]: the “Normalized average relative binding affinity(ARB)” value on HLA A*3001 came to 0.050; on HLA A*3201, 0.092; at HLA A*6802 it was 0.42; on HLA B*0801, 0.32; at HLA B*1501, 0.49; on HLA B*1503, 0.043. The “Normalized average relative binding affinity(ARB)” value is reported as 0.36 on HLA B*3501; 0.37 at HLA B*5101; 0.29 on HLA B*5301; 0.26 at HLA B*5401; 0.15 on HLA B*5801; 0.092 at HLA B*5802. Further, the “Normalized average relative binding affinity(ARB)” value on H-2 D^b worked out at 0.96; on H-2 D^d it was 0.060; on H-2 K^d, 0.14; on H-2 K^k, 0.13.
For the sequence XXXXXXYXX [3064.0140], the “Normalized average relative binding affinity(ARB)” value on HLA A*3001 turned out to be 0.20; at HLA A*3201 it was 0.55; at HLA A*6802, 0.62; at HLA B*0801, 0.27; at HLA B*1501 it was 0.28; at HLA B*1503, 0.17. Further, the “Normalized average relative binding affinity(ARB)” value on HLA B*3501 came out at 0.32; at HLA B*5101 it was 1.0; on HLA B*5301, 0.12; on HLA B*5401 it was 0.32; on HLA B*5801 it was 0.94; at HLA B*5802 it was 0.069. Further, the “Normalized average relative binding affinity(ARB)” value on H-2 D^b was 1.0; at H-2 D^d, 0.076; on H-2 K^d, 0.11; at H-2 K^k, 0.092.
XXXNXXXXX [3064.0072]: the “Normalized average relative binding affinity(ARB)” value at HLA A*3001 came to 0.31; at HLA A*3201 it was 0.59; at HLA A*6802 it was 0.27; at HLA B*0801, 0.48; on HLA B*1501 it was 0.46; at HLA B*1503 it was 0.76. In addition, the “Normalized average relative binding affinity(ARB)” value came out at 0.079 on HLA B*3501; 0.42 on HLA B*5101; 0.27 on HLA B*5301; 0.20 at HLA B*5401; 0.46 on HLA B*5801; 0.55 on HLA B*5802. In addition, the “Normalized average relative binding affinity(ARB)” value at H-2 D^b worked out at 0.18; at H-2 D^d, 0.40; at H-2 K^d, 0.24; at H-2 K^k, 0.22.
For XXXXXXXIX [3064.0148], the “Normalized average relative binding affinity(ARB)” value at HLA A*3001 was determined as 0.21; on HLA A*3201 it was 0.60; at HLA A*6802, 0.051; on HLA B*0801, 0.39; on HLA B*1501, 0.18; at HLA B*1503 it was 0.33. The “Normalized average relative binding affinity(ARB)” value at HLA B*3501 stood at 0.55; on HLA B*5101, 0.21; at HLA B*5301 it was 1.0; at HLA B*5401, 0.11; at HLA B*5801, 0.39; on HLA B*5802 it was 0.41. The “Normalized average relative binding affinity(ARB)” value was 0.14 at H-2 D^b, 0.25 at H-2 D^d, 0.30 at H-2 K^d and 0.56 on H-2 K^k.
As for XXXHXXXXX [3064.0067], the “Normalized average relative binding affinity(ARB)” value at HLA A*3001 worked out at 0.45; on HLA A*3201 it was 0.32; on HLA A*6802, 0.30; at HLA B*0801, 0.26; at HLA B*1501, 0.19; on HLA B*1503 it was 0.29. Moreover, the “Normalized average relative binding affinity(ARB)” value came to 0.16 on HLA B*3501; 0.18 at HLA B*5101; 0.089 at HLA B*5301; 0.21 at HLA B*5401; 0.40 on HLA B*5801; 0.32 at HLA B*5802. In addition, the “Normalized average relative binding affinity(ARB)” value is 0.29 on H-2 D^b, 0.53 on H-2 D^d, 0.22 at H-2 K^d and 0.13 at H-2 K^k.
